Measured values published in patent publication US5451518A, “Purified human ceramide-activated protein kinase” (Sloan-Kettering Institute for Cancer Research, priority 1992, dated 1995).
“Also recorded” adds a separate entry of the source.

Columns and labels:
[1] = system: EL-4 cells; assay: Sphingomyelin levels in intact EL-4 cells; assay type: cell-based, murine
Experimental: (§1) Time course (FIG. 12A) and dose response (FIG. 12B). Cells were grown to growth arrest (1-1.5×10^6 cells ml^-1) in DME/Ham's F12 medium (1:1, v/v) containing 10% horse serum and for 48 hours [^3 H]choline (1 μCi ml^-1). On the day of an experiment, cells were resuspended back into the same medium at 10×10^6 cells ml^-1 and stimulated with 40 ng ml^-1 IL-1β for the indicated times (FIG. 12A) or for 30 minutes with increasing concentrations of IL-1β (FIG. 12B). Human IL-1β may be obtained using methods well knownto those skilled in the art. Reactions were terminated with CHCl3 :CH3 OH:HCl (100:100:1) containing 10 mM EDTA (82). Lipids in the organic phase extract were dried under N2 and subjected to mild alkaline hydrolysis (0.1M methanolic KOH for 1 hour at 37° C.) to remove glycerophospholipids. Spingomyelin was resolved by thin-layer chromatography (TLC) using CHCl3 :CH3 OH:CH3 COOH:H2 O (60:30:8:5) as solvent, identified by iodine vapor staining, and quantified by liquid scintillation spectrometry. As previously reported, the use of [^3 H]choline as a measure of sphingomyelin content was validated by simultaneous phospholipid phosphorus measurements (62). Each value represents the mean ± SEM of triplicate determinations from four experiments in (FIG. 12A), and one representative of four similar studies performed in triplicate in (FIG. 12B).
The murine thymoma EL-4 cell line is a well-defined IL-1 responsive cell line that expresses functional IL-1 receptors (61, 62). Upon stimulation with IL-1, these cells up-regulate the IL-2 receptor and secrete IL-2 (62). Initial studies were designed to investigate the effects of IL-1β on cellular sphingomyelin content. Cells, grown in Dulbecco's Modified Eagle's (DME)/Ham's F-12 medium containing 10% horse serum and [^3 H]choline (1 μCi ml^-1), were resuspended back into the same medium at 10×10^6 cells ml^-1 and stimulated with IL-1β. IL-1β is commercially available.

[2] = system: EL-4 cells; assay: Ceramide levels in intact EL-4 cells; assay type: cell-based, murine
Experimental: as §1
Cells were stimulated as in FIGS. 12A and 12B with IL-1β (40 ng ml^-1) and ceramide contained within the organic phase extract quantified enzymatically using the E. coli diacylglycerol kinase reaction (57). Lipids were resolved by TLC using CHCl3 :CH3 OH:CH3 COOH (65/15/5) as solvent, autoradiographed and quantified by liquid scintillation spectrometry. Each value represents the mean ± SEM of triplicate determinations from 10 experiments.

[3] = system: ceramide-activated protein kinase
Experimental: Homogenates were centrifuged at 500×g for 5 minutes to remove nuclei and at 200,000×g for 30 minutes to prepare microsomal membranes. Membranes were resuspended into homogenizing buffer (2.2 μg membrane protein μl^-1). For assay of kinase activity, the reaction mixture contained 20 μl of microsomal membrane, 40 μl EGFR peptide (4 mg ml^-1 in 25 mM Hepes, pH 7.4) and 100 μl buffer (50 mM HEPES, pH 7.4, 20 mM MgCl2) (40). Phosphorylation was initiated at 22° C. by addition of 40 μl [γ-^32 P] ATP (100 μM final concentration) and terminated at the indicated times by addition of 40 μl of 0.5M ATP in 90% formic acid. Phosphorylated peptide was eluted from a C18 Sep pak cartridge (Millipore), lyophilized, and resolved by C18 reverse phase HPLC using a linear gradient of acetonitrile. […] All assays were performed under conditions determined as linear for time and enzyme concentration. Enzyme activity was determined from the percent conversion of substrate to product and the specific radioactivity of [γ-^32 P] ATP. […] Values (mean ± range) represent duplicate determinations from two experiments.
Activity was measured by the transfer of ^32 P from the γ-position of ATP to EGFR peptide (AA 663-681 of the EGFR). The effect of IL-1β on kinase activity was determined using microsomal membranes derived from cells stimulated with IL-1β.

[4] = system: sphingomyelin (EL-4 nuclei-free supernate); assay: Sphingomyelin levels in EL-4 cell-free system; assay type: biochemical, murine; settings: IL-1β, n=10, p<0.005 vs. control
Experimental: (§2) Thereafter, supernates (300 μg incubation^-1 in 25 μl ) were added to a reaction mixture (total volume 250 μl ) as described in FIG. 14. For studies measuring lipid levels, incubations were stopped by extraction of lipids into an organic phase and resolved as described in FIGS. 12A, 12B and 13. For studies measuring kinase activity, incubations contained EGFR peptide and [^32 P]ATP, and phosphorylated peptide was quantified as described in FIG. 14. Background activity was subtracted from each point. Values (mean) represent data from two experiments for sphingomyelin performed in triplicate, three experiments for ceramide performed in triplicate, and five experiments for ceramide-activated protein kinase activity performed in duplicate.
(§3) Early kinetics of activation of a potential signaling system provide some support that the pathway might be involved in the signaling process. However, signal transduction pathways are highly regulated and often interrelated (70). […] To provide additional support for tight coupling of the sphingomyelin pathway to activation of the IL-1β receptor, studies were performed with subcellular fractions derived from EL-4 cells. […] These effects were quantitatively similar to those determined in the intact cells.

[5] = system: ceramide (EL-4 nuclei-free supernate); assay: Ceramide levels in EL-4 cell-free system; assay type: biochemical, murine; settings: IL-1β, n=6, p<0.005 vs. control
Experimental: as §2, §3

[6] = system: ceramide-activated protein kinase; assay: Ceramide-activated protein kinase activity in EL-4 cell-free system; assay type: biochemical, murine; settings: IL-1β
Experimental: as §2, §3

[7] = system: proline-directed protein kinase activities other than ceramide-activated protein; assay: Cytosolic kinase activity toward EGFR peptide in EL-4 cells; assay type: cell-based, murine
[8] = system: protein kinase C; assay: Protein kinase C activity by phosphorylation of lysine-rich histone in EL-4 cells; assay type: cell-based, murine; settings: membrane and cytosolic fractions
[9] = system: EL-4 cells; assay: Phosphatidylcholine content in EL-4 cells; assay type: cell-based, murine; settings: IL-1β
[10] = system: human natural killer-like cell line, YT; assay: Ceramide generation in YT cells; assay type: cell-based; settings: preliminary studies
[11] = system: EL4 cells; settings: 24 h

With IL-1β: Human IL-1β the “sphingomyelin content after IL-1β” value ([1]; 40 ng ml^-1, 30 minutes, baseline 800±14, mean ± SEM, p<0.005) was 648±16 pmol 10^6 cells^-1, the “time at which sphingomyelin reduction was detectable” value ([1]; IL-1β 40 ng ml^-1) was ≤ 2 min and the “concentration for maximal effect, sphingomyelin” value ([1]; IL-1β, 30 minutes) was 10 ng/mL. For the same substance, the “effective concentration, sphingomyelin” value ([1]; IL-1β, 30 minutes) was 0.01 ng/mL, the “effective dose (ED50), sphingomyelin hydrolysis” value ([1]; IL-1β, 30 minutes) was “≈ 2 ng ml^-1” and the “effect on sphingomyelin (in words)” value ([1]; intact EL-4) was “rapid reduction in sphingomyelin”. The “ceramide response (in words)” value ([2]; EL-4, maximally effective concentrations (n=5), SMase 1×10^-3 U ml^-1) was “elevation in ceramide levels”, the ceramide content ([2]; IL-1β, 2 minutes, from 360, p<0.005) was 403 pmol 10^6 cells^-1 and the maximum ceramide content ([2]; IL-1β, 15 minutes, from 360) was 450 pmol 10^6 cells^-1. For the same substance, the “time at which increase in ceramide content was evident” value ([2]; IL-1β, n=4) was ≤ 30 s, the “kinase activity after IL-1β” value ([3]; 10 ng ml^-1, 2 minutes, from 5) was 11 pmol per minute per milligram (pmol min^-1 mg^-1) and the “concentration for maximal effect, kinase activity” value ([3]; IL-1β) was 10 ng/mL. The “effective concentration, kinase activity” value ([3]; IL-1β) was 0.03 ng/mL, the “effective dose (ED50), kinase activity” value ([3]; IL-1β) was “≈ 2 ng ml^-1” and the “time at which increase in kinase activity was detectable” value ([3]; IL-1β 10 ng ml^-1) was 30 s. For the same substance, the “increase in kinase activity” value ([3]; IL-1β 10 ng ml^-1, 2 minutes) was 2.1 -fold of control, the “time to maximal kinase activity” value ([3]; IL-1β 10 ng ml^-1, p<0.005) was 2 min and the “reduction in sphingomyelin content (in words)” value [4] was “rapid reduction in sphingomyelin content; also recorded: detected at i minute”. For the same substance, the “increase in ceramide content (in words)” value [5] was “quantitative increase in ceramide content; also recorded: detected at i minute”, the “ceramide-activated protein kinase activity (in words)” value [6] was “Ceramide-activated protein kinase activity also increased” and the “cytosolic kinase activity (in words)” value [7] was “not enhanced”. The “protein kinase C activity (in words)” value [8] was “not enhanced in either membrane or cytosolic fractions”, the phosphatidylcholine content [9] was “unchanged” and the “generation of ceramide in YT cells” value [10] was “induces rapid generation of ceramide”. The “IL-2 secretion in combination with TPA (in words)” value [11] was “stimulated secretion maximally” and the “IL-2 secretion, ±TPA” value ([11]; Table I, TPA 20 ng ml^-1, mean ± range, nd = not detectable) was 261 ± 2.
